From patent US20070065524A1, “Pharmaceutical composition containing guaiacol derivatives and syringol derivatives extracted from natural plant vinegar” (priority 2003, published 2007)

Experiment: DPPH free radical scavenging ability
Type: biochemical
Method: For example, a method using DPPH(1,1-diphenyl-2-picrylhydrazin) can be used.
DPPH scavenging ability, as described later, was evaluated by using each fraction.
4 ml of samples with 0.1, 0.05, 0.005, 0.001, 0.0005 and 0.0001 mg/ml diluted with methanol and 1 ml of 0.1 mM DPPH methanol solution were put into test tubes and mixed well, and left in a dark place for 30 minutes. Then absorbance of the mixture at 520 nm was read and compared with that of the BHT standard solution. The reducing power of samples can be indicated as scavenging activity (SC50) and SC50 is the concentration of samples that makes the concentration of DPPH reduce to 50%.

## Cc1cc(C(C)(C)C)c(O)c(C(C)(C)C)c1 [BHT, butylated hydroxy toluene]
Conc. 10 ug/ml
  Free radical removal ability: 23.30 ± 1.94%
Conc. 50 ug/ml
  Free radical removal ability: 68.41 ± 1.55%
Conc. 100 ug/ml
  Free radical removal ability: 87.73 ± 0.64%
Conc. 500 ug/ml
  Free radical removal ability: 96.03 ± 0.12%
